Source: patent US4315938A, “4-Phenyl-4,5,6,7-tetrahydro-pyrrolo [2,3-c] pyridines and salts thereof” (Boehringer Ingelheim Gmbh, priority 1979, dated 1982)
Like-named read-outs stand apart in the source and are kept apart here.

What was measured:
[1] = test system: uptake of serotonin by the neurons (synaptosomes); assay: Inhibition of serotonin uptake by synaptosomes of homogenized cerebrum; assay type: biochemical; conditions: rat cerebrum synaptosomes, 10 minutes at 37° C.; read-out: Serotonin inhibition IC 50
Method: (§1) It is now believed that various forms of depression cause a deficiency of certain physiologically important amines, particularly noradrenaline and serotonin, in certain parts of the brain, and that the amount of such amines may be increased by inhibiting their uptake by neurons.
(§2) The test is performed on the homogenized, isolated cerebrum of the rat. A suspension of synaptosomes thus obtained is incubated with […] noradrenaline and/or serotonin and various concentrations of a solution of the test substance in water for 10 minutes at 37° C. When the incubation is finished, the medium is separated by filtering, and the radioactivity of the suspension of synaptosomes is measured.
(§3) A control test in the absence of the test substance is simultaneously carried out in order to determine the quantity of radioactive amines taken up. The quantity of the test substance in mols which is required to inhibit 50% of the uptake is designated the IC 50.

[2] = test system: uptake of noradrenaline by the neurons (synaptosomes); assay: Inhibition of noradrenaline uptake by synaptosomes of homogenized cerebrum; assay type: biochemical; conditions: rat cerebrum synaptosomes, 10 minutes at 37° C.; read-out: Noradrenaline inhibition IC 50
Method: as §1, §2, §3

[3] = test system: hypothermic effect caused by reserpine; assay: Reserpine antagonism (elimination of the hypothermic effect caused by reserpine); assay type: in vivo; conditions: Mus musculus, mice, oral, 17 h after 2 mg/kg i.p. reserpine
Method: A further test for determining anti-depressive activity is based on reserpine-antagonism, that is, the elimination of the hypothermic effect caused by reserpine. The test is carried out in mice, 5 animals being used per dosage test. Seventeen hours after i.p. administration of 2 mg/kg of reserpine, the body temperature is measured peripherally while at a room temperature of 19° C. Afterwards, the test substance is administered orally, and the body temperature is measured after 1, 3, 5 and 7 hours. For each measured period a mean effective dose (ED50) is determined. This is the dosage at which the body temperature of the animals treated with reserpine approaches the normal temperature of untreated controls by 50%.

[4] = 1 hour, read-out: Reserpine antagonism after 1 hour (ED50)
[5] = 3 hours, read-out: Reserpine antagonism after 3 hours (ED50)
[6] = 5 hours, read-out: Reserpine antagonism after 5 hours (ED50)
[7] = 7 hours, read-out: Reserpine antagonism after 7 hours (ED50)

Row | SMILES | IC50 [1] | IC50 [2] | ED50 [3, 4] | ED50 [3, 5] | ED50 [3, 6] | ED50 [3, 7]
1 | CN1Cc2c(cc(CN3CCOCC3)n2C)C(c2ccccc2)C1 (stereo not drawn) [1,6-Dimethyl-2-morpholinomethyl-4-phenyl-4,5,6,7-tetrahydropyrrolo[2,3-c]pyridine] | 1600 nM | 6600 nM | > 40 mg/kg | 16 mg/kg | 10 mg/kg | < 40 mg/kg
2 | CN1Cc2c(ccn2C)C(c2ccc(Br)cc2)C1 (stereo not drawn) [1,6-Dimethyl-4-(p-bromophenyl)-4,5,6,7-tetrahydro-pyrrolo[2,3-c]pyridine] | 90 nM | 1250 nM | 20 mg/kg | 6 mg/kg | 40 mg/kg | 40 mg/kg
3 | CN(CCO)Cc1cc2c(n1C)CN(C)CC2c1ccc(Br)cc1 (stereo not drawn) [1,6-dimethyl-2-N-methyl-N-β-hydroxyethyl-aminomethyl-4-(p-bromophenyl)-4,5,6,7-tetrahydro-pyrrolo[2,3-c]-pyridine dimaleate] | 380 nM | 1300 nM | 10 mg/kg | < 10 mg/kg | 13 mg/kg | 10 mg/kg
4 | CN1Cc2c(cc(Br)n2C)C(c2ccc(Br)cc2)C1 (stereo not drawn) [1,6-dimethyl-2-bromo-4-(p-bromophenyl)-4,5,6,7-tetrahydro-pyrrolo[2,3-c]-pyridine] | 440 nM | 1800 nM | > 40 mg/kg | 14 mg/kg | < 10 mg/kg | 10 mg/kg
5 | CN1Cc2c(cc(CN3CCCCCC3)n2C)C(c2ccc(Br)cc2)C1 (stereo not drawn) [1,6-dimethyl-2-hexahydro-azepine-1-yl-methyl-4-(p-bromophenyl)-4,5,6,7-tetrahydro-pyrrolo[2,3-c]-pyridine dimaleate] | – | – | < 10 mg/kg | < 10 mg/kg | 20 mg/kg | > 40 mg/kg
6 | CN1Cc2c(cc(CN3CCCCC3)n2C)C(c2ccc(Br)cc2)C1 (stereo not drawn) [1,6-dimethyl-2-piperidino-methyl-4-(p-bromophenyl)-4,5,6,7-tetrahydro-pyrrolo-[2,3-c]pyridine dimaleate] | – | – | > 40 mg/kg | 40 mg/kg | 40 mg/kg | > 40 mg/kg
7 | CN1Cc2c(cc(CN3CCCC3)n2C)C(c2ccc(Br)cc2)C1 (stereo not drawn) [1,6-dimethyl-2-pyrrolidino-methyl-4-(p-bromophenyl)-4,5,6,7-tetrahydro-pyrrolo-[2,3-c]pyridine dimaleate] | – | – | > 40 mg/kg | < 10 mg/kg | 10 mg/kg | < 10 mg/kg
8 | CN1Cc2c(ccn2C)C(c2ccc(Cl)cc2)C1.Cl (stereo not drawn) [1,6-dimethyl-4-(p-chlorophenyl)-4,5,6,7-tetrahydro-pyrrolo-[2,3-c]pyridine hydrochloride] | 40 nM | 1500 nM | < 10 mg/kg | < 10 mg/kg | < 10 mg/kg | < 10 mg/kg
9 | CN1Cc2c(ccn2C)C(c2ccc(F)cc2)C1.Cl (stereo not drawn) [1,6-dimethyl-4-(p-fluorophenyl)-4,5,6,7-tetrahydro-pyrrolo-[2,3-c]pyridine hydrochloride] | 180 nM | 6700 nM | < 10 mg/kg | < 10 mg/kg | < 10 mg/kg | < 10 mg/kg
10 | Cc1ccc(C2CN(C)Cc3c2ccn3C)cc1.Cl (stereo not drawn) [1,6-dimethyl-4-(p-tolyl)-4,5,6,7-tetrahydro-pyrrolo-[2,3-c]pyridine hydrochloride] | 40 nM | 4900 nM | > 40 mg/kg | < 10 mg/kg | 16 mg/kg | < 10 mg/kg
11 | Cn1ccc2c1CNCC2c1ccc(Br)cc1.O=C(O)/C=C\C(=O)O (stereo not drawn) [1-methyl-4-(p-bromophenyl)-4,5,6,7-tetrahydro-pyrrolo-[2,3-c]pyridine maleate] | 530 nM | 6900 nM | 36 mg/kg | 10 mg/kg | 30 mg/kg | 40 mg/kg
12 | CCN1Cc2c(ccn2C)C(c2ccc(C)cc2)C1.Cl (stereo not drawn) [1-methyl-4-(p-tolyl)-6-ethyl-4,5,6,7-tetrahydro-pyrrolo-[2,3-c]pyridine hydrochloride] | 20 nM | 600 nM | > 40 mg/kg | < 10 mg/kg | 10 mg/kg | > 40 mg/kg
